These results are taken from patent US10519101B2, “Trans-cyclooctene amino and hydroxy acids and their use in multiple cycloaddition reactions for labeling of molecules” (EUROPEAN MOLECULAR BIOLOGY LABORATORY, priority 2014, dated 2019).

Entries after “also recorded” stand apart in the source; their conditions may differ.

For one data set, the target named is T1, tRNA^Pyl/PylRS^AF (Methanosarcina mazei, UniProt Q8PWY1, Y306A/Y384F).
T1 construct: expressed in transfected cells; host or cells: E. coli Top10 (Invitrogen), co-transformed with pEvolv tRNA^Pyl/PylRS^AF and pBAD GFP^Y39TAG
T1 sequence (Q8PWY1 whole entry Y306A/Y384F): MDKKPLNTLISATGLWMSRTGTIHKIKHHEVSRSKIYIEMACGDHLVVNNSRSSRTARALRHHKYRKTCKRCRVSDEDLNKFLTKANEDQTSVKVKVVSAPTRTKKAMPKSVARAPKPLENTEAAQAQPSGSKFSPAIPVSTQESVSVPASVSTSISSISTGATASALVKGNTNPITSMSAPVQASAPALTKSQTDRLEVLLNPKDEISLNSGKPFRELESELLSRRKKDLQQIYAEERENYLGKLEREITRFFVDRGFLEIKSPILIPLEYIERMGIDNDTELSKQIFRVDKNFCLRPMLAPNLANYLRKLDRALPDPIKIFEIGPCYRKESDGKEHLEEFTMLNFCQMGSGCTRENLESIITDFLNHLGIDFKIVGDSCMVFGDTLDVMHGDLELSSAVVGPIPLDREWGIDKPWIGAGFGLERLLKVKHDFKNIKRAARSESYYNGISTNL
Put plainly: Recombinant expression of GFP^TAG→UAA in E. coli (amber suppression, UAA incorporation). The class given is cell-based. Particulars: for protein yields / incorporation rate compared with compound 2: E. coli, 1 mM UAA, GFP^Y39TAG; for incorporation rate compared with compound 2: FIG. 12; for expression yield of GFP^TAG→UAA (Coomassie SDS-PAGE): compared with TCO.

Data set [1] in a line: Stability of UAAs by 1H-NMR without thiols. The class given is physicochemical. The conditions noted are these: dPBS (pH 7.4)/dioxane-d8 (v/v 1:1); rt, 37° C., 60° C.; 72 h. As for the experimental part:
Therefore, 0.1 M NaOH (for E. coli cells) and DMSO (for mammalian cells) are well suited solvents for the preparation of stock solutions for biological experiments. However, stock solutions were stored at −20° C. and thaw 30 min before usage.
Taking the properties of the purified compounds into account, these conditions resemble the nearest physiological conditions possible, as they prevail in biological experiments (living cells, aqueous buffered solutions of proteins) ((a) B. R. Varga, M. Kallay, K. Hegyi, S. Beni, P. Kele, Chemistry 2012, 18, 822-828; b) R. van Geel, G. J. Pruijn, F. L. van Delft, W. C. Boelens, Bioconjugate chemistry 2012, 23, 392-398).

A short description of data set [2]: Long time stability of the covalent bond in labeled proteins (FRET). Particulars: labeled with Me-Tet-Cy3, excess filtered off, 4 h to 76 h. How it is done:
To proof the stability of the formed covalent bonds between TCO* and the dye-Tet in a SPIEDAC reaction, long time FRET experiments were carried out. Basically, the same FRET assay as described above was used to test whether the fluorophores stays covalently attached to the protein or not over a period of 36 h. 200 nM GFP^TAG→3 were separately reacted with 2 μM Me-Tet-Cy3 at room temperature (rt) and the ratio between D and A fluorophore was followed over time.
In another experiment, Ni-NTA-purified GFP^TAG→UAA (1-4) was labeled with Me-Tet-Cy3 (2 h, 37° C.). Excess Me-Tet-Cy3 was filtered off (˜2 h). 200 nM labeled GFP^TAG>UAA+Cy3 (with 1-4) were followed over time by FRET as described above. Note that the first data point was taken approximately 4 h after adding the tetrazine to the proteins. No significant changes between the FRET ratio measured after 4 h and after 76 h were observed (FIG. 7).

In another data set the test system is HEK293T cells. Put plainly: Pulse-chase dual-color labeling of insulin receptor IR^TAG. The class given is cell-based. How it is done: For insulin receptor experiments, HEK293T cells were maintained in Dulbecco's Modified Eagle's Medium—DMEM (high glucose—4.5 g/l) supplemented with 10% FBS (Sigma), 1% L-glutamine (Invitrogen, Palo Alto, USA) and 1% Pen-Strep (Invitrogen) in a 5% CO2 atmosphere at 37° C. Cells were passaged every 2-3 days up to 15-20 passages. For microscopy, cells were seeded on 4-well chambered Lab-Tek #1.0 borosilicate coverglass (ThermoFisher, Ma USA) 15-24 h prior to transfections. Transfections were performed with JetPrime reagent (PegLab, Erlangen, Germany) according to the manufacturer's recommendations. In short, for double-transfections with IR and tRNA^Pyl/PylRS^AF vectors we used plasmids in 1:1 ratio keeping total amount of DNA at 1 μg. UAAs were added after the transfections in two pulses (see FIG. 2a). UAAs were dissolved in DMSO (250 mM stock of PrK; 100 mM stock of TCO*) or 20% formic-acid DMSO (500 mM stock of BCN; 250 mM stock of SCO). Each UAA was used at a final concentration of 250 μM. After the 2nd UAA pulse, cells were rinsed with fresh medium and kept overnight in DMEM.
In the morning following transfections, medium was exchanged to serum-free high glucose DMEM […], in which all the subsequent washing and labeling steps were also performed. The transfected cells were then labeled according to the following protocols. […]

The nature of data set [3]: 1H-NMR assay of orthogonality of seSPIEDAC and SPIEDAC reactions. The class given is physicochemical. Particulars: 5 mm dienophile, 10 mm tetrazine, DMSO-d6, 10 min at room temperature.
Method: Stock solutions of the dienophiles in DMSO-d6 with a final concentration of 10 mm were prepared. A 20 mm stock of the formic acid salt of (4-(6-methyl-1,2,4,5-tetrazine-3-yl)phenyl)methanamine (termed as methyl tetrazine or Me-Tet-NH2) in DMSO-d6 was prepared, too. As control experiment, either the dienophile or the diene (Me-Tet-NH2) were mixed with DMSO-d6 1:1 (v/v; 760 μl total volume) to yield a final concentration of 5 mm or 10 mm, respectively, in the NMR tube. To confirm whether a dienophile reacts with the diene (Me-Tet-NH2) or not, the corresponding stocks were mixed 1:1 (v/v; 760 μl total volume) to yield a final concentration of 5 mm of the dienophile and 10 mm of the diene in the NMR tube. The samples were incubated for 10 min at room temperature before analyzed by ^1H-NMR.
A short description of data set [4]: Stability of trans-cyclooctenyl isomers against thiols by 1H-NMR. The conditions noted are these: two equivalents of cysteamine, 60° C., ten days (240 h). The class given is physicochemical. How it is done:
In order to test for stability against thiols, UAAs 2-4 were separately combined with two equivalents of cysteamine hydrochloride in dPBS/dioxane-d8 (v/v 1:1), NMR tubes were tightly sealed, and incubated at rt, 37° C., or 60° C. ^1H-NMR spectra were measured after 24 h of incubation and later time points (in case of 3). […] For all three trans-cyclooctene-containing UAAs, conversion of the trans-cyclooctenyl-form to its corresponding cis-cyclooctenyl-form was observed (FIG. 8b). […] These numbers were obtained by comparing the integrals for the double bond protons and the —CHO— protons (if possible/applicable) before and after the heat treatment as it was done before by others for similar compounds ((a) B. R. Varga, M. Kallay, K. Hegyi, S. Beni, P. Kele, Chemistry 2012, 18, 822-828; b) R. van Geel, G. J. Pruijn, F. L. van Delft, W. C. Boelens, Bioconjugate chemistry 2012, 23, 392-398; J. Yang, J. Seckute, C. M. Cole, N. K. Devaraj, Angew Chem Int Ed Engl 2012, 51, 7476-7479). Observations at different temperatures were consistent with the expectation that the higher the temperature, the faster/easier the isomerization. Isomerization to the cis-form continued in samples kept at rt or 37° C. after 24 h (data not shown).

Data set [5] in a line: FRET assay of labeling kinetics of GFP^TAG→UAA with Me-Tet-Cy3. The conditions noted are these: tested experimental conditions of the FRET assay; listed as SCO. As for the experimental part: For observation of labeling kinetics, GFP^TAG→UAA was expressed with 1-5 (for structures of UAAs see FIG. 1a). E. coli lysate was adjusted to a final GFP concentration of 200 nM based on absorbance spectra. H-Tet-Atto532 7 or Me-Tet-Cy3 8 (see FIG. 4), respectively, were added to a final concentration of 2 μM and fluorescence spectra (excitation at λ=450 nm, emission λ=470-650 nm) were recorded at different time points. The experiments were carried out in a total volume of 2 ml and continuous stirring. 1 mM stocks of the dyes in DMSO were used. Successful labeling of GFP^TAG→UAA was monitored by Foerster resonance energy transfer (FRET) from the GFP-chromophore (serving as a Donor, D) to the synthetic fluorophore (Acceptor, A) when covalently attached. In the individual spectra this is visible by a decrease of GFP-fluorescence (around λ=503-506 nm) and a simultaneous increase of Atto532- (λ=551 nm) or Cy3-fluorescence (λ=563 nm), respectively, over time (shown exemplarily for GFP^TAG→3 (TCO*) in the left panel of FIG. 5). […] Note that time point “0 min” is defined as the time point about 15 s after pipetting the dye to the protein solution. […]

For the compound `N[C@@H](CCCCNC(=O)OC1/C=C/CCCCC1)C(=O)O` (stereo in doubt) [Compound 3b, N-ε-((trans-Cyclooct-2-en-1-yloxy)carbonyl)-L-lysine], on tRNA^Pyl/PylRS^AF, the protein yields amounted to 0.4 mg/L, the “incorporation rate compared with compound 2” value is “more readily incorporated than compound 2 by about a factor of two” and the “expression yield of GFP^TAG→UAA (Coomassie SDS-PAGE)” value (shortened to “expression yield of GFP^TAG→UAA”) was “higher expression yields than the TCO”.
`N[C@@H](CCCCNC(=O)OC1C/C=C/CCCC1)C(=O)O` (stereo partly drawn) [Compound 4, N-ε-((trans-Cyclooct-3-en-1-yloxy)carbonyl)-L-lysine]: the “expression yield of GFP^TAG→UAA” value on tRNA^Pyl/PylRS^AF is listed as “higher expression yields than the TCO”. The “stability by 1H-NMR” value in data set [1] is on record as “remained un-changed”.
For the compound `N[C@@H](CCCCNC(=O)OC1/C=C/CCCCC1)C(=O)O` (stereo in doubt) [Compound 3a, N-ε-((trans-Cyclooct-2-en-1-yloxy)carbonyl)-L-lysine], on tRNA^Pyl/PylRS^AF, the protein yields was 0.4 mg/L, the “incorporation rate compared with compound 2” value is “more readily incorporated than compound 2 by about a factor of two” and the “expression yield of GFP^TAG→UAA” value is listed as “higher expression yields than the TCO”.
For `N[C@@H](CCCCNC(=O)OCC1C2CCC#CCCC21)C(=O)O` (some centres unmarked) [Compound 1], the “stability of covalent bond, FRET ratio over time” value in data set [2] is given as “consistent FRET values over time”. The “labeling of IR (confocal)” value in the data set with HEK293T cells (TCO* pulse, BCN chase, Me-Tet-Cy5, quencher, H-Tet-Atto532) was “no signal in the Atto532 channel was observed”.
`OC1CC2C=CC1C2` (centres unmarked) [5-norbornene-2-ol]: in data set [3], the “reaction with tetrazine Me-Tet-NH2 by 1H-NMR” value was “No new signals were detected”.
In the case of `N[C@@H](CCCCNC(=O)OC1/C=C/CCCCC1)C(=O)O` (stereo partly drawn) [Compound 3, N-ε-((trans-Cyclooct-2-en-1-yloxy)carbonyl)-L-lysine], on tRNA^Pyl/PylRS^AF, the protein yields is 0.4 mg/L, the “incorporation rate compared with compound 2” value is “more readily incorporated than compound 2 by about a factor of two” and the “expression yield of GFP^TAG→UAA” value is “higher expression yields than the TCO”. In data set [1], the “stability by 1H-NMR” value is “remained un-changed”. Moreover, in data set [4], the “trans-form left after ten days” value was “more 3 (TCO*) was left in its trans-form than for 2 (TCO) and 4 (TCO^#) after 24 h”. Also, the “stability of covalent bond, FRET ratio over time” value in data set [2] is “consistent FRET values over time”.
Turning to `N[C@@H](CCCCNC(=O)OC1C#CCCCCC1)C(=O)O` (stereo partly drawn) [Compound 5, N-ε-((Cyclooct-2-yn-1-yloxy)carbonyl)-L-lysine], the “Reactivity with Me-Tet (in words)” value in data set [5] is reported as “basically no detectable reactivity; also recorded: no substantial reactivity with Me-Tet”. Moreover, in the data set with HEK293T cells (TCO* and SCO, Me-Tet-Cy5 then H-Tet-Atto532, 10 min), the “labeling of IR (confocal)” value is “bright labeling of the IR in the plasma membrane for both channels”.
`N[C@@H](CCCCNC(=O)OC1CC/C=C/CCC1)C(=O)O` (stereo partly drawn) [Compound 2, N-ε-((trans-Cyclooct-4-en-1-yloxy)carbonyl)-L-lysine]: the “stability by 1H-NMR” value in data set [1] is “remained un-changed”.
